Laboratory results: patent publication EP4692089A1, “NITROGEN-CONTAINING HETEROCYCLIC COMPOUND AS AAK1 INHIBITOR” (Alicorn Pharmaceutical Co., Ltd., priority 2023, dated 2024)
pEC50, pIC50: −log10 of the molar value.

Assays:
[1] = molecular target: T1, AAK1 (30-330) protein (Homo sapiens, UniProt Q2M2I8); experiment: AAK1 kinase assay (ADP generated, detected by HPLC); assay type: biochemical; details: 3.5 nM AAK1, 22 µM ATP, 25°C, 3 h
T1 construct: (His)6x (N); TEV protease cleavage site (N); made in house; host or cells: Escherichia coli BL21(DE3)
T1 sequence (Q2M2I8 30-330): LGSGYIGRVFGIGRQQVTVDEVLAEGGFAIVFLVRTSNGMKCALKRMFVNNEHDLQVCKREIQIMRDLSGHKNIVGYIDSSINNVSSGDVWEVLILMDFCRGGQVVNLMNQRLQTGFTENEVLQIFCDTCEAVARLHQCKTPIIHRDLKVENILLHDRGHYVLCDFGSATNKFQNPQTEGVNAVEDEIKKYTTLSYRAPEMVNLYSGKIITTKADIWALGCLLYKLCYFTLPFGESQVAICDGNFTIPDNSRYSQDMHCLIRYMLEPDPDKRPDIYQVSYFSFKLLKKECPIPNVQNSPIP
From the text: Experimental objective: The objective of this test example is to test the effect of compounds on AAK1 kinase function.
Background principle: AAK1 phosphorylates the threonine residue in the micro-subunit of AP2 (AP2M1). In this process, ATP provides phosphate groups to generate ADP. Therefore, the activity of AAK1 kinase can be evaluated by detecting the amount of ADP generated.
(§1) Expression of AAK1 (30-330) protein: The AAK1 sequence (residues 30-330) was cloned into the pET24N vector with an N-terminal (His)6x tag and a tobacco etch virus (TEV) protease cleavage site. The constructed vector was transformed into Escherichia coli BL21(DE3). When the bacteria were cultured with shaking to reach an OD value of 0.6, 1 mM IPTG was added. […] The bacterial cells were collected and subjected to ultrasonic disruption. The supernatant was obtained by centrifugation, and the protein was purified using Ni-NTA. After dialysis, the concentration and purity of the protein were determined.
The reaction mixture was incubated in a metal bath at 25°C for 3 h. The reaction was terminated by adding 1% SDS, and the amount of ADP generated was detected by HPLC. IC50 values were calculated using GraphPad software.

[2] = molecular target: T1, AAK1 (30-330) protein; experiment: CETSA test of binding ability to AAK1 protein (Western blot)
Description: Experimental objective: To detect the binding ability of compounds to AAK1 protein by means of a CETSA experiment.
Background principle: The CETSA experiment is a molecular detection means for measuring the affinity between drugs and target proteins. […] When a candidate drug is co-incubated with a target protein, if the candidate drug is an inhibitor of AAK1, it can bind to AAK1. […] On the contrary, the stability of the AAK1 protein after heating will be poorer, and the amount of the detected protein will be lower. In this way, the binding ability of the drug to the target protein can be evaluated, which is used for the screening of AAK1 protein inhibitors.
as §1
CETSA sample preparation: Samples were incubated with candidate drugs, control drugs, and control reagents separately for 30 minutes. Each group of samples was heated at approximately 10 pre-set temperature points. After being returned to room temperature, the samples were centrifuged at 20000 g, and the supernatants were collected. Protein samples were denatured by heating at 100°C for 10 minutes with a sample buffer. After the samples were returned to room temperature, Western blot detection was performed on them; the protein loading amount was controlled at 20 µg. […] The same operations were followed, and Western blot detection was conducted. Protein electrophoresis: The voltage for the stacking gel was set at 60 V, and that for the separating gel was set at 120 V. After electrophoresis, electrotransfer was initiated. Electrotransfer conditions were set at 250 mA for 2 h. Blocking with 5% BSA was performed for 1 h. A specific primary antibody was added, and incubation was carried out overnight at 4°C on a shaker. Washing with TBST was conducted 4 times, with 2.5 minutes each time. A secondary antibody was incubated on a shaker at room temperature for 1 h. Washing with TBST was conducted 4 times, with 2.5 minutes each time. ECL was used for development to detect the expression levels of AAK1 protein in different groups and at each temperature point. Western blot bands were processed and converted using Image J and GraphPad software to calculate EC50.

[3] = molecular target: T2, AAK1 (Homo sapiens, UniProt Q2M2I8); experiment: Effect on AP2M1 phosphorylation in 293T cells co-transfected with AAK1 and AP2M1 (Western blot, anti-p-AP2M1); assay type: cell-based; details: p-AP2M1 level, incubated 3 h
T2 construct: HA; expressed in transfected cells; host or cells: 293T cells
T2 sequence (Q2M2I8 whole entry): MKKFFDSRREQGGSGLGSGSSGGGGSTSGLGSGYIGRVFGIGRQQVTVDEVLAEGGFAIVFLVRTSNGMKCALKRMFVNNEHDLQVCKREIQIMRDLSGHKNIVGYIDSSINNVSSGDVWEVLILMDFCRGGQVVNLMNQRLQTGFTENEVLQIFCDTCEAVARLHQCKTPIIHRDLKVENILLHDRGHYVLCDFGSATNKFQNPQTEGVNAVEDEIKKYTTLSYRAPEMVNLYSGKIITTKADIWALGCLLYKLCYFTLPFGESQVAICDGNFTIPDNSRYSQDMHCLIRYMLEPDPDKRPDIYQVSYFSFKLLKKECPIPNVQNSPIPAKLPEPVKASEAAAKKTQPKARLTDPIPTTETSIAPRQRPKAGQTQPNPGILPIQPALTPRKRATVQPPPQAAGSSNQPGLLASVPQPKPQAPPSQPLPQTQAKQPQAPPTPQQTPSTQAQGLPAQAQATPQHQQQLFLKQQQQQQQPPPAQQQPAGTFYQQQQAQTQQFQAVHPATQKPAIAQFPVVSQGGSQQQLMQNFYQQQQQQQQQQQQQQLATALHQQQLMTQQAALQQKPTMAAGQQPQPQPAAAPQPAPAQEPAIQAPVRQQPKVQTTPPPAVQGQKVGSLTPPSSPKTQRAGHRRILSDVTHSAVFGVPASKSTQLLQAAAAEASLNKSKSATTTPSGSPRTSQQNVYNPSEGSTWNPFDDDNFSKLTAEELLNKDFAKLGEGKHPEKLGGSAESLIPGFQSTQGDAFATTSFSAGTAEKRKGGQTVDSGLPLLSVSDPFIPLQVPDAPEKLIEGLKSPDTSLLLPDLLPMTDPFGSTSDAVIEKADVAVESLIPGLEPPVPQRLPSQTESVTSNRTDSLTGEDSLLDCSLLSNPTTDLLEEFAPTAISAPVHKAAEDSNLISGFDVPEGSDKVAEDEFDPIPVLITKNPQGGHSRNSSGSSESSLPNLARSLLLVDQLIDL
From the text: Experimental objective: The objective of this test example is to determine the effect of compounds on AP2M1 phosphorylation in cells.
Background principle: Adaptor-associated kinase 1 (AAK1), also known as AP2-associated kinase 1, is a 104 kDa serine/threonine kinase. AAK1 interacts with the adaptor protein 2 (AP2) complex and phosphorylates the threonine residue in the micro-subunit of AP2 (AP2M1), thereby increasing its binding affinity for certain tyrosine-based or dileucine-based sorting signals of some membrane receptors. The inhibitory effect of compounds on AAK1 was evaluated by detecting the phosphorylation level of AP2M1 in cells, so as to screen candidate compounds.
On the second day, each T25 flask was co-transfected with 16 µg of plasmids (1 µg of AAK1/HA/pIRES and 15 µg of Flag/AP2MI/pcDNA) using a Lip2000 transfection reagent. On the third day, the cells were digested and resuspended, centrifuged at 1000 rpm for 5 minutes, and then seeded into 24-well plates at 450 µl per well (2 × 10^5 cells/well). Gradient dilutions of the compounds to be tested were prepared, 50 µl was added to each well, mixed thoroughly, and incubated at 37°C for 3 h. DMSO was set as a control, and cells without plasmid transfection were set as a blank control. After incubation, the cells were collected and washed twice with PBS. The cells were lysed on ice for 30 minutes using a cell lysis buffer containing the protease inhibitor PMSF. The concentration of protein samples was determined using a BCA kit. Protein electrophoresis: The voltage for the stacking gel was set at 60 V, and that for the separating gel was set at 120 V. After electrophoresis, electrotransfer was initiated. Electrotransfer conditions were set at 250 mA for 2 h. Blocking with 5% BSA was performed for 1 h. A specific primary antibody, anti-p-AP2M1, was added, and incubation was carried out overnight at 4°C on a shaker. Washing with TBST was conducted 4 times, with 2.5 minutes each time. A secondary antibody was incubated on a shaker at room temperature for 1 h. Washing with TBST was conducted 4 times, with 2.5 minutes each time. ECL was used for development to detect the expression level of p-AP2M1. Western blot bands were processed and converted using Image J and GraphPad software to calculate IC50.
IC50 (half maximal inhibitory concentration) refers to the half-inhibitory concentration of the measured antagonist. It can indicate the concentration of a certain drug or substance (inhibitor) that achieves half of the inhibition effect on certain biological processes (or certain substances involved in these processes, such as enzymes, cellular receptors, or microorganisms).

SMILES | pIC50 [1] | pEC50 [2] | pIC50 [3]
CC(C)C[C@@](C)(N)COc1ccc(-c2ccnc3[nH]c(C(F)(F)F)nc23)nc1C(F)F [Compound 9] | 7.00 | 7.00 to 8.00 | 7.00 to 8.00
CC(C)C[C@@](C)(N)COc1ccc(-c2ccnc3c2nc(C(F)(F)F)n3C)nc1C(F)F [Compound 11] | 6.91 | 7.00 to 8.00 | 7.00 to 8.00
CC(C)C[C@](C)(N)COc1ccc(-c2c[nH]c3ncc(C(F)F)cc23)cc1C(F)(F)F [Compound 33] | 7.16 | 7.00 to 8.00 | 7.00 to 8.00
CC(C)C[C@](C)(N)COc1ccc(-c2c[nH]c3ncc(Cl)cc23)nc1C(F)F [Compound 44, (S)-1-{[6-(5-chloro-1H-pyrrolo[2,3-b]pyridin-3-yl)-2-(difluoromethyl)pyridin-3-yl]oxy}-2,4-dimethylpentan-2-amine] | 8.09 | > 8.00 | > 8.00
CC(C)C[C@@](C)(N)COc1ccc(-c2ccnc3[nH]cnc23)nc1C(F)F [Compound 7] | 7.00 | 6.00 to 7.00 | 7.00 to 8.00
CC(C)C[C@](C)(N)COc1ccc(-c2c[nH]c3ncccc23)nc1C(F)F [Compound 3] | 7.67 | 7.00 to 8.00 | 7.00 to 8.00
CC(C)C[C@@](C)(N)COc1ccc(-c2c[nH]c3nc(F)ccc23)nc1C(F)F [Compound 15] | 6.95 | 7.00 to 8.00 | 7.00 to 8.00
Cc1nc2ccnn2c(-c2ccc(OC[C@@](C)(N)CC(C)C)c(C(F)F)n2)c1F [Compound 20] | 6.99 | 7.00 to 8.00 | 7.00 to 8.00
CC(C)C[C@@](C)(N)COc1ccc(-c2ccnc3ccnn23)nc1C(F)F [Compound 1, (R)-1-{[2-(difluoromethyl)-6-(pyrazolo[1,5-a]pyrimidin-7-yl)pyridin-3-yl]oxy}-2,4-dimet hylpentan-2-amine] | 7.49 | 7.00 to 8.00 | 7.00 to 8.00
CC(C)C[C@@](C)(N)COc1ccc(-c2ccnc3c(F)cnn23)nc1C(F)F [Compound 19] | 7.06 | 7.00 to 8.00 | 7.00 to 8.00
CC(C)C[C@@](C)(N)COc1ccc(-c2c[nH]c3nc(C(F)(F)F)ccc23)nc1C(F)F [Compound 5] | 7.06 | 7.00 to 8.00 | 7.00 to 8.00
CC(C)C[C@](C)(N)COc1ccc(-c2ccnc3[nH]cnc23)nc1C(F)F [Compound 6] | 7.12 | 7.00 to 8.00 | 7.00 to 8.00
COc1ccnc2[nH]cc(-c3ccc(OC[C@@](C)(N)CC(C)C)c(C(F)F)n3)c12 [Compound 16, (S)-1-{[2-(difluoromethyl)-6-(4-methoxy-1H-pyrrolo[2,3-b]pyridin-3-yl)pyridin-3-yl]oxy}-2,4-dimethylpentan-2-amine tris(trifluoroacetate)] | 7.06 | 7.00 to 8.00 | 7.00 to 8.00
CC(C)C[C@](C)(N)COc1ccc(-c2cncc3[nH]c(C(F)(F)F)nc23)nc1C(F)F [Compound 12] | 7.00 | 7.00 to 8.00 | 7.00 to 8.00
CC(C)C[C@](C)(N)COc1ccc(-c2c[nH]c3nc(F)ccc23)nc1C(F)F [Compound 14] | 6.99 | 7.00 to 8.00 | 7.00 to 8.00
CC(C)C[C@](C)(N)COc1ccc(-c2ccnc3c2nc(C(F)(F)F)n3C)nc1C(F)F [Compound 10] | 6.82 | 7.00 to 8.00 | 7.00 to 8.00
CC(C)C[C@](C)(N)COc1ncc(-c2c[nH]c3ncc(C(F)F)cc23)c(C(F)(F)F)n1 [Compound 39] | 6.99 | 7.00 to 8.00 | 7.00 to 8.00
CC(C)C[C@@](C)(N)COc1ccc(-c2cncc3[nH]c(C(F)(F)F)nc23)nc1C(F)F [Compound 13] | 6.78 | 7.00 to 8.00 | 7.00 to 8.00
CC(C)C[C@](C)(N)COc1ccc(-c2c[nH]c3nc(C(F)(F)F)ccc23)nc1C(F)F [Compound 4] | 7.34 | 7.00 to 8.00 | 7.00 to 8.00
CC(C)C[C@](C)(N)COc1ccc(-c2cn(C)c3ncc(F)cc23)nc1C(F)F [Compound 43, (S)-1-{[2-(difluoromethyl)-6-(5-fluoro-1-methyl-1H-pyrrolo[2,3-b]pyridin-3-yl)pyridin-3-yl]oxy}-2,4-dimethylpentan-2-amine] | 7.92 | > 8.00 | > 8.00
CC(C)C[C@](C)(N)COc1ccc(-c2c[nH]c3ncc(C#N)cc23)nc1C(F)F [Compound 27] | 7.24 | 7.00 to 8.00 | 6.00 to 7.00
CC(C)C[C@](C)(N)COc1ccc(-c2ccnc3c(C(=O)O)cnn23)nc1C1CC1 [Compound 22] | 6.77 | 6.00 to 7.00 | 7.00 to 8.00
Cc1nc2ccnn2c(-c2ccc(OC[C@](C)(N)CC(C)C)c(C(F)F)n2)c1F [Compound 21] | 6.72 | 6.00 to 7.00 | 7.00 to 8.00
CC(C)C[C@@](C)(N)COc1ccc(-c2c[nH]c3ncccc23)nc1C(F)F [Compound 2, (R)-1-{[2-(difluoromethyl)-6-(1H-pyrrolo[2,3-b]pyridin-3-yl)pyridin-3-yl]oxy}-2,4-dimet hylpentan-2-amine] | 7.55 | 7.00 to 8.00 | 7.00 to 8.00
CC(C)C[C@](C)(N)COc1ccc(-c2ccnc3[nH]c(C(F)(F)F)nc23)nc1C(F)F [Compound 8] | 6.89 | 7.00 to 8.00 | 7.00 to 8.00
Cc1cnc2[nH]cc(-c3ccc(OC[C@@](C)(N)CC(C)C)c(C(F)F)n3)c2c1 [Compound 45, (S)-1-{[2-(difluoromethyl)-6-(5-methyl-1H-pyrrolo[2,3-b]pyridin-3-yl)pyridin-3-yl]oxy}-2,4-dimethylpentan-2-amine diformate] | 8.19 | > 8.00 | > 8.00
CC(C)C[C@](C)(N)COc1ccc(-c2ccnc3c(F)cnn23)nc1C(F)F [Compound 18] | 7.37 | 7.00 to 8.00 | 7.00 to 8.00
